In patent US20180172683A1, “METHODS FOR ANALYZING THE INTERACTION BETWEEN A TARGET PROTEIN AND A LIGAND” (UNIVERSITY OF SOUTHERN CALIFORNIA, priority 2015, published 2018):
Peptide text beside a SMILES is read from it. * marks the point of attachment. Biotin = O=C1N[C@H]2[C@H](CS[C@H]2CCCCC(=O)*)N1

Experiments:
Bcl-xL [1] = molecular target: T1, Bcl-xL (Homo sapiens, UniProt Q07817); assay: Radiolabeled off-rate assay on immobilized Bcl-xL; assay type: binding
T1 construct: The gene for the first 209 amino acids of Bcl-xL; made in house; host or cells: E. coli BL21(DE3), pET24a vector
T1 sequence (Q07817 1-209 limits assumed): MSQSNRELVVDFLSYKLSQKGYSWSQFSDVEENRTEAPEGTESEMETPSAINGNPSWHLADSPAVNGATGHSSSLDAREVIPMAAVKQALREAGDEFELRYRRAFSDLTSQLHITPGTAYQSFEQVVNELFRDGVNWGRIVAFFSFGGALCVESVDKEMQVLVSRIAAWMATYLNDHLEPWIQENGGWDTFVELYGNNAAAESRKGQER
Text: Radiolabeled Off-Rate Assay. The DNA sequences coding for the peptides were ordered from Integrated DNA Technologies (IDT). Each DNA construct contained a T7 RNA Polymerase promoter, and a 5′ deletion mutant of the Tobacco Mosaic Virus (ΔTMV). The C-terminal portion of the peptides were elongated with a flexible serine-glycine linker (six amino acids long) and an HA tag. After gel purification using urea-PAGE, the DNA sequences were PCR amplified using Taq polymerase and in vitro transcribed into mRNA using T7 RNA polymerase. After transcription, the mRNA was urea-PAGE purified and resuspended in deionized water to a final concentration of 30 μM.
The samples were in vitro translated at 30° C. for 1 hour in the translation solution—150 mM KOAc, 750 μM MgCl2, 2 μM mRNA, 1× translation mix (20 mM Hepes-KOH pH 7.6, 100 mM creatine phosphate, 2 mM DTT, and 312.5 μM of each amino acid excluding methionine), ^35S-labeled methionine (Perkin Elmer; 20 μCi for each 25 μL of translation), and 60% (v/v) rabbit reticulocyte lysate. Radiolabeled peptides were purified using magnetic HA beads (Life Technologies) and eluted with 100 μL, 50 mM NaOH, then immediately neutralized with 20 μL of 1 M Tris-HCl, pH 8.0.
The radiolabeled peptides were allowed to bind to 30 pmol immobilized Bcl-xL for 1 hour in sample buffer (1×PBS, 1% (w/v) BSA, 0.1% (v/v) Tween 20, 10 μM biotin). The beads were magnetically separated, and washed 5× with sample buffer. The beads were resuspended in 1 mL of sample buffer containing 3 μM non-biotinylated Bcl-xL (˜100× molar excess relative to immobilized biotinylated Bcl-xL). At various time points, 100 μL of slurry was removed and the beads were magnetically separated and washed. The percent remaining at each time point was determined by dividing the counts per minute (cpm) on beads by total cpm (beads+washes). The peptide off-rate was determined by an exponential fit of the Percent counts on beads vs. Time (s).
The peptide ligands were made using a C-terminal HA tag, and affinity purified.

Bcl-xL [2] = molecular target: T1, Bcl-xL; assay: High-throughput sequencing kinetic (HTSK) on- and off-rates of mRNA-peptide fusions; assay type: binding; settings: mRNA-peptide fusions, next-generation sequencing
Experimental: Preparing the pools of fusion ligands. The DNAs for the final enriched pools from the extension and the doped selection against Bcl-xL were generated. The DNA pools were PCR amplified using Taq polymerase and in vitro transcribed into mRNA using T7 RNA polymerase (Liu et al., Methods Enzymol. 318, 268-293 (2000)). After transcription, the mRNA was urea-PAGE purified and resuspended in deionized water to a final concentration of 30 μM. The mRNA was then ligated to fluorescein-F30P (phosphate-dA21-[dT-fluor]-[C9]3-dAdCdCP; where [dT-fluor] is fluorescein dT (Glen Research), [C9] is spacer 9 (Glen Research), and P is puromycin (Glen Research); synthesized at the Keck Oligo Facility at Yale) using T4 DNA ligase (Takahashi et al., Methods Mol. Biol. 535, 293-314 (2009)). The ligation was performed using a splint complementary to the 3′ end of the RNA and the 5′ end of the DNA-linker. The ligated mRNA was urea-PAGE purified and resuspended in deionized water to final concentration of 30 μM. The samples were in vitro translated in the translation solution-150 mM KOAc, 750 μM MgCl2, 2 μM mRNA, in 1× translation mix (20 mM Hepes-KOH pH 7.6, 100 mM creatine phosphate, 2 mM DTT, and 312.5 μM of each amino acid) and 60% (v/v) rabbit reticulocyte lysate. To prepare radiolabeled peptides or proteins, non-labeled methionine was substituted with ^35S-labeled methionine (Perkin Elmer; 20 μCi for each 25 μL of translation). The translation reactions were incubated at 30° C. for one hour. To form mRNA-protein fusions, KCl and MgCl2 were added to the reaction to final concentrations of 250 mM and 30 mM respectively after translation, and the samples were frozen at −20° C.
To purify the fusion molecules, 100 μL of dT cellulose (25% (v/v) slurry, GE Healthcare) in isolation buffer (100 mM Tris-HCl pH 8.0, 1 M NaCl, 0.2% (v/v) Triton X-100) was added and incubated for 1 hour. The beads were washed five times with 700 μL of isolation buffer, and the fusions were eluted with 3×80 μL of 65° C. water and desalted through Centrisep columns (Princeton Separations). The desalted fusions were adjusted to 1×RT buffer (50 mM Tris-HCl pH 8.3, 75 mM KCl, 3 mM MgCl2, […], […],) and the sample was heated to 65° C. for 5 minutes and cooled on ice to anneal the 3′ primer. After cooling, […] of Superscript II enzyme was added and the reaction incubated at 42° C. for one hour. […]
On- and off-rate experiments. […] The radiolabeled samples were washed 3×, and the beads were counted via a scintillation counter.
To obtain the HTSK off-rates, after the kinetic on-rate experiment, the remaining beads were washed 5× with selection buffer. […] The radiolabeled samples were washed and counted via a scintillation counter. […]

[3] = in vitro translated radiolabeled peptides with C-terminal HA tag, read-out: Peptide koff
[4] = radiolabeled peptide-mRNA fusions bound to immobilized Bcl-xL, read-out: koff

Row | SMILES | koff (Bcl-xL [1]; [3]) [s⁻¹] | koff (Bcl-xL [1]; [4]) [s⁻¹] | koff (Bcl-xL [2]) [s⁻¹]
1 | CC[C@H](C)[C@H](NC(=O)[C@H](C)NC(=O)[C@@H](NC(=O)[C@@H](N)CCSC)[C@@H](C)CC)C(=O)N[C@@H](CO)C(=O)N[C@H](C(=O)N[C@H](C(=O)N[C@@H](Cc1ccc(O)cc1)C(=O)N[C@@H](CC(N)=O)C(=O)N[C@@H](Cc1ccc(O)cc1)C(=O)N[C@@H](CCCCN)C(=O)N[C@@H](CCCCN)C(=O)N[C@@H](C)C(=O)N[C@@H](C)C(=O)N[C@@H](CC(=O)O)C(=O)N[C@@H](Cc1c[nH]cn1)C(=O)N[C@@H](Cc1ccc(O)cc1)C(=O)N[C@@H](C)C(=O)N[C@@H](CCSC)C(=O)N[C@H](C(=O)N[C@@H](CCCCN)C(=O)NCC(=O)N[C@@H](CO)C(=O)N[C@@H](CCCCNC(=O)CCCC[C@@H]1SC[C@@H]2NC(=O)N[C@@H]21)C(N)=O)[C@@H](C)O)[C@@H](C)CC)[C@@H](C)O [D1] (H-MIAISTIYNYKKAADHYAMTKGSK(Biotin)-NH2) | 2e-06 | 2e-06 | 1e-06
2 | CC[C@H](C)[C@H](NC(=O)[C@@H](NC(=O)[C@@H](NC(=O)[C@@H](NC(=O)[C@H](CCC(=O)O)NC(=O)[C@@H](NC(=O)[C@@H](N)CCSC)[C@@H](C)CC)[C@@H](C)O)[C@@H](C)CC)[C@@H](C)O)C(=O)N[C@@H](Cc1ccc(O)cc1)C(=O)N[C@@H](CC(N)=O)C(=O)N[C@@H](Cc1ccc(O)cc1)C(=O)N[C@@H](CCCCN)C(=O)N[C@@H](CCCCN)C(=O)N[C@@H](C)C(=O)N[C@@H](C)C(=O)N[C@@H](CC(=O)O)C(=O)N[C@@H](Cc1c[nH]cn1)C(=O)N[C@@H](Cc1ccccc1)C(=O)N[C@@H](CO)C(=O)N[C@@H](CCSC)C(=O)N[C@@H](CO)C(=O)N[C@@H](CCSC)C(=O)NCC(=O)N[C@@H](CO)C(=O)N[C@@H](CCCCNC(=O)CCCC[C@@H]1SC[C@@H]2NC(=O)N[C@@H]21)C(N)=O [E1] (H-MIETITIYNYKKAADHFSMSMGSK(Biotin)-NH2) | 7.4e-06 | 1.2e-05 | 2.5e-06
